The structures appear in SMILES notation.

The target of this assay is T1, free fatty acid receptor 1 (FFA1, GPR40) (Homo sapiens, UniProt O14842).
T1 construct: gene FFAR1
Kind of assay: calcium flux (FLIPR) agonist assay in CHO cells stably expressing human FFA1. The class given is cell-based.

T1 sequence (O14842 whole entry): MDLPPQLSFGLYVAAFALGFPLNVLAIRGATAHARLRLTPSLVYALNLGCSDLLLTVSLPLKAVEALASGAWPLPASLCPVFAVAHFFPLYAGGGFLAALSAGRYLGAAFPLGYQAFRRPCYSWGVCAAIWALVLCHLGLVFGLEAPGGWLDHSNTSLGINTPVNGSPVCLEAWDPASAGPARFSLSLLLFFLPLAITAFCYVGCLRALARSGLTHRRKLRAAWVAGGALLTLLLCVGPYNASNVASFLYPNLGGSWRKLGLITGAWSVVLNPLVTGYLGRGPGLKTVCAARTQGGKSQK

With `O=C(O)CCc1nnc(C(=O)Nc2cccc(-c3ccc(Cl)cc3)c2)s1` [2a, 3-(5-{[(4′-Chlorobiphenyl-3-yl)amino]carbonyl}-1,3,4-thiadiazol-2-yl)propanoic acid], the EC50 turned out to be 1320 nM. Then `O=C(O)CCc1nnc(C(=O)Nc2cccc(-c3ccc(OC(F)(F)F)cc3)c2)s1` [2c, 3-[5-({[4′-(Trifluoromethoxy)biphenyl-3-yl]amino}carbonyl)-1,3,4-thiadiazol-2-yl]propanoic acid], with 1250 nM.

For `O=C(O)CCc1nnc(C(=O)Nc2ccc(-c3cccc(C(F)(F)F)c3)cc2)s1` [2e, 3-[5-({[3′-(Trifluoromethyl)biphenyl-4-yl]amino}carbonyl)-1,3,4-thiadiazol-2-yl]propanoic acid], the concentration giving a half-maximal response (EC50) turned out to be 1860 nM. The value for `COc1cccc(-c2ccc(NC(=O)c3nnc(CCC(=O)O)s3)cc2)c1` [2g, 3-(5-{[(3′-Methoxybiphenyl-4-yl)amino]carbonyl}-1,3,4-thiadiazol-2-yl)propanoic acid] was 1350 nM.
